Assay results published in ChEMBL document CHEMBL1157539, “Thousands of chemical starting points for antimalarial lead identification” (Nature, 2010).

These molecules were tested on Plasmodium falciparum (assay: GSK_TCMDC: Inhibition of Plasmodium falciparum 3D7 in whole erythrocytes, using parasite LDH activity as an index of growth.). Conditions: Plasmodium falciparum, 3D7.
Format: functional, organism-based

SMILES | XC50 [nM]
CN(C)CCC1CCCc2ccc(NC(=O)Nc3ccc(-c4ccncc4)c4ccccc34)cc21 (stereo not given) | 1070
Cn1cncc1-c1ccc2c(-c3ccsc3)cnc(N)c2c1 | 850
CCOc1ccc2nc3cc(N)ccc3c(N)c2c1 | 527
O=C1COc2ccccc2N1C/C=C(\CN1CCC(c2ccccc2)CC1)c1cc(Cl)cc(Cl)c1 | 215
CC(C)(C)c1ccc(OC(=O)c2ccc(NC(=O)N[C@@H](Cc3ccc(O)cc3)C(=O)NC3CCN(Cc4ccc(O)cc4)C3)cc2)cc1 (stereo not given in full) | 814
COc1ccc(NC(=O)c2ccc(-c3nc(-c4ccccc4)cs3)cc2)cc1N1CCN(C)CC1 | 992
CCOc1ccc(-c2nonc2NC(=O)c2cccc(Cl)c2)cc1OCC | 147
CCCCCCn1c(Sc2ccc(C#N)c([N+](=O)[O-])c2)nnc1-c1ccc(N(C)C)cc1 | 1070
c1cc(CNCc2ccc3c(c2)OCO3)cc(-c2cccc(CNc3ccc4ncccc4c3)c2)c1 | 760
O=[N+]([O-])c1ccc(N/C(=N\c2ccccc2Br)NCCOc2ccccc2)c(O)c1 | 1050
Cc1cc(N[C@@H](Cc2ccccc2)C(=O)NCc2cccs2)nc(NCCc2ccc(F)cc2)n1 | 854
CCN(CCCN1CCCCC1)c1cc(C)nc(Nc2ccc(C)c(Cl)c2)n1 | 207
CS(=O)(=O)c1ccc2[nH]c(-c3cc(-c4ccc(OCCN5CCOCC5)cc4)cnc3N)nc2c1 | 1060
O=C(Nc1ccccc1)Nc1cccc(-c2nn3c(OCC4CCCCN4)cccc3c2-c2ccncc2)c1 (stereo not given) | 858
O=C(NCCN1CCCC1)c1cccc(-c2ccc(-c3nc4cc(F)ccc4[nH]3)cc2)c1 | 722
Cc1ccc(C(=O)Nc2ccnc(N(C)C3CCN(Cc4cccc(O)c4)CC3)c2)cn1 | 1880
CN(Cc1ccccc1)C(=O)c1nn(CCCN2CCC(N3CCCC3)CC2)cc1-c1ccc(Cl)c(Cl)c1 | 767
O=C(NC1CCC(CN2CCC(c3c[nH]c4ccccc34)CC2)CC1)c1csc(-c2cccc(Cl)c2Cl)n1 (stereo not given) | 1730
Cc1cc(Oc2cc(NC(=O)c3sc4ncn(Cc5ccccc5F)c(=O)c4c3C)cc([N+](=O)[O-])c2)ccc1Cl | 1150
O=C(Nc1cccc(-c2nn3ccccc3c2-c2ccnc(Nc3cccc(-c4cnco4)c3)n2)c1)C1CCCCC1 | 261
CN(C)Cc1ccc(-c2cccc(NC(=O)c3ccc(Cl)cc3)c2)cc1 | 900
CCN(CC)CCN1C(=O)c2oc3ccc(F)cc3c(=O)c2C1c1cccc(Cl)c1 (stereo not given) | 531
Cc1ccc2c(c1[N+](=O)[O-])N=NCC2Oc1ccccc1 (stereo not given) | 868
Cc1[nH]c2c(C)cccc2c1C1CCN(CCC2CCN(C(=O)/C=C/c3ccc(Cl)c(Cl)c3)CC2)CC1 | 636

SMILES | XC50 [nM]
N[C@@H](CCNC1CCN(c2cccc(C(F)(F)F)c2)CC1)Cc1ccc(F)c(F)c1 | 1290
CC(C)C(C(=O)n1cc2c(ccc3nc(N)nc(N)c32)n1)C(C)C | 790
COc1ccccc1NC(=O)Nc1cccc(-c2cccc(-c3nc4cccc(C)c4[nH]3)c2)c1 | 95.7
COc1cccc(CCNc2nc(NCc3ccccc3)c3cc(OC)c(OC)cc3n2)c1 | 321
Cn1c(Nc2cc(C(C)(C)C)on2)nc2cc(Nc3ccnc(Nc4cccc(S(=O)(=O)N5CCOCC5)c4)n3)ccc21 | 533
OC(CN1CCN(c2cccc(Cl)c2)CC1)C(c1ccccc1)c1ccccc1 (stereo not given) | 1150
COc1ccc2ccc(F)c(CC(=O)N3CCOC(CNCc4cccc(-c5ccsc5)n4)C3)c2n1 (stereo not given) | 1170
NC1=NC(c2ccccc2)(c2ccccc2)C(=O)N1CCOc1ccccc1 | 844
CN1CCN(CCCN(Cc2csc(-c3ccc(CNCc4ccccc4)cc3)n2)S(=O)(=O)c2ccccc2Cl)CC1 | 876
Cc1cc(CNCCCCCCNCc2ccc(-c3ccccc3)cc2)ccc1O | 897
CN1CCC(N2CCN(Cc3ccc(-c4cccc(-c5nc6cc(F)ccc6[nH]5)c4)cc3)CC2)CC1 | 173
CN1CCc2cc(NS(=O)(=O)c3ccc(-c4ccc(Cl)cc4)cc3)c(OCCCN3CCCCC3)cc2CC1 | 961
CN(C)CCCN1CCN(C(=O)c2cc3cc(-c4ccccc4)ccc3n2S(=O)(=O)c2ccccc2)CC1 | 119
COc1ccc2ccccc2c1CCCCN1CCN(CC(c2ccc(F)cc2)N2CCC(N3CCCC3)CC2)CC1 (stereo not given) | 619
CN1CCN(CCc2ccc(N/C=C3\C(=O)Nc4ccc5ncccc5c43)cc2)CC1 | 325
O=C(NC1CCN(Cc2ccccc2)CC1)c1ccc(-c2nc3cc(F)c(F)cc3[nH]2)s1 | 835
COc1ccc(S(=O)(=O)NC2CCN(c3ccc(C(F)(F)F)cc3NC(=O)OCC(C)C)CC2)cc1 | 1220
CC(C)C1C(O)=C(c2ccc3ccccc3c2)C(=O)N1CC1CCCCC1 (stereo not given) | 1130
C[C@@H](C(N)=O)N1CCCCC1c1ccc(OCc2cccc(F)c2)cc1 (stereo not given in full) | 989
Clc1cc(Cl)cc(Nc2ccnc(Nc3cc(Cl)cc(Cl)c3)n2)c1 | 672
C(=N\Nc1nccc2sc(-c3cccnc3)cc12)/c1ccncc1 | 213
COc1ccc(NC(=O)[C@H](Cc2ccccc2)Nc2nc(NCCN3CCCC3)ncc2C)cc1 | 988
CC(O)C(C)(CO)NCc1ccc2c3c(cccc13)-c1ccccc1-2 (stereo not given) | 818
COc1ccc(CNc2nccc3ccc(-c4ccc(N)nc4)cc23)cc1 | 979

SMILES | XC50 [nM]
O=C(Nc1ccc(-c2cccc(-c3nc4ccccc4[nH]3)c2)cc1)Nc1ccc(Cl)c(Cl)c1 | 459
CS(=O)(=O)c1ccc2c(c1)CCN(CCC1CCC(NC(=O)C(=Cc3cccc(C#N)c3)c3ccc(-c4ccccc4)cc3)CC1)CC2 (stereo not given) | 839
O=C(NC(=S)NCc1ccncc1)c1ccccc1 | 1690
Cc1[nH]c(C)c(-c2ccc(-c3cccc(Cl)c3)nc2)c(=O)c1Br | 318
COC(=O)c1ccc(CC(C)NCC(O)c2cccc(Br)c2)cc1 (stereo not given) | 694
CCOc1ccc(-c2nonc2NC(=O)CC(C)C)cc1OCC | 977
O=[N+]([O-])c1ccc(Nc2nc(N/N=C/c3ccc(-c4ccc([N+](=O)[O-])cc4)o3)nc(Nc3ccccc3)n2)cc1 | 640
COc1cccc(NC(=O)NCCNc2ccnc(Nc3ccc(F)cc3)n2)c1 | 917
CCCc1cc(C(C)=O)ccc1OCCCON1C(=N)N=C(N)NC1(C)C | 4.57
Cc1ccc(CNC(=O)[C@H](CC(C)C)Nc2cc(C)nc(NCC3CCCCC3)n2)cc1 | 926
COc1ccc(Nc2nccc(N3CCC(NC(=O)Nc4ccc5c(c4)OCO5)C3)n2)cc1 (stereo not given) | 599
COc1ccc(CNCc2ccsc2)cc1-c1ccc(S(=O)(=O)NCCN2CCCC2)c(C)c1 | 898
N=C(N)NC(=O)Nc1cc(Cl)c(Cl)c(Cl)c1 | 588
CCCCCCNC(=N)c1ccc(OCCCCCOc2ccc(C(=N)NCCCCCC)cc2)cc1 | 309
CCOc1cc(C(=O)NCCCN2CCN(c3cccc(Cl)c3)CC2)ccc1-c1nc2cc(Cl)c(F)cc2[nH]1 | 866
O=C(NC1CCC(CN2CCC(c3c[nH]c4ccccc34)CC2)CC1)[C@H]1Cc2ccccc2CN1 (stereo not given in full) | 948
CCCCCCCc1cc(=O)c2ccccc2[nH]1 | 317
CC(C)c1ccc(N(CC(=O)N/N=C/c2ccc(C(F)(F)F)cc2)S(=O)(=O)c2ccc(C(F)(F)F)cc2)cc1 | 846
O=C(Nc1ccc(CN2CCC(c3c[nH]c4ccc(O)cc34)CC2)cc1)c1ccc(-c2ccccc2)cc1 | 253
CCCCCCCCNc1c2ccc(Cl)cc2nc2ccc(OC)cc12 | 805
COc1c(Br)cc(Br)cc1C(C)=O | 989
COc1cc2ncnc(Nc3ccc(OCc4ccccc4Br)c(Cl)c3)c2cc1OC | 1280
